test system: HBV; assay: Activity of test compounds on viral production from HepAD38 cells (viral load by qPCR of HBV core sequence); type: cell-based; conditions: Hepatitis B virus, 120 h, 5 days, supernatant HBV DNA by qPCR vs DMSO control, read-out: viral load lowering EC50 (Activity)
Procedure: Assay Measuring Activity of Test Compounds on Viral Production from HepAD38 Cells
HepAD38 cells grown in a T-150 flask (Corning, cat#: 430825) with Growth Medium (DMEM/F12 (1:1) (Hyclone, cat#: SH30023.02), 1× Pen/Strep (Invitrogen, cat#: 15140-122), 10% FBS (Tissue Culture Biologics, cat#: 101), 250 μg/mL G418 (Alfa Aesar, cat#: J62671), 1 μg/mL Tetracycline (Teknova, cat#: T3320)) were detached with 0.25% trypsin-EDTA (Invitrogen, cat#: 25200-056). Tetracycline-free treatment medium (15 mL DMEM/F12 (1:1) 1×Pen/step, with 2% FBS, Tet-system approved (Clontech, cat#: 631106) were then added to mix, transferred into a 50 ml conical tube (Falcon, cat#: 21008-918) and spun at 1300 rpm for 5 min. Pelleted cells were then re-suspended/washed with 50 mL of 1×DPBS (Invitrogen, cat#: 14190-136) 2 times and 50 mL treatment medium twice. HepAD38 cells were then re-suspended with 10 mL of treatment medium, syringed and counted. Wells of 96-well clear bottom TC plate (Corning, cat#: 3904) were seeded at 50,000 cells/well in 180 μL of treatment medium, and 20 μL of either 10% DMSO (Sigma, cat#: D4540) as controls or a 10× solution of test compounds in 10% DMSO in treatment media was added for a final compound concentration starting at 10 μM, and plates were incubated in 5% CO2 incubator at 37° C. for 5 days.
Subsequently viral load production was assayed by quantitative PCR (qPCR) of the HBV core sequence. PCR reaction mixture containing forward primers HBV-f 5′-CTGTGCCTTGGGTGGCTTT-3′ (IDT DNA), Reverse primers HBV-r 5′-[…]-3′ (IDT DNA), Fluorescent TaqMan™ Probes HBV-probe 5′-FAM/AGCTCCAAA/ZEN/[…]/3IABkFQ-3′ (IDT DNA), 10 μL/well of PerfeCTa® qPCR ToughMix® (Quanta Biosciences, Cat#: 95114-05K), and 6 μL/well of DEPC water (Alfa Aesar, cat#: J62087) was prepared. Four μL of supernatant was added to 16 μL of the reaction mixture in a qPCR plate (Applied Biosytems, Cat#: 4309849), sealed with a film (Applied Biosystems, Cat#: 4311971), centrifuged for a few seconds, and subsequently run on an Applied Biosystems VIIA7. The PCR mixture was incubated at 45° C. for 5 min, then 95° C. for 10 min, followed by 40 cycles of 10 seconds at 95° C. and 20 seconds at 60° C. Viral load was quantified against known HBV DNA standards by using ViiA™ 7 Software. Viral load in the supernatant from wells with treated cells were compared against viral load in supernatant from DMSO control wells (≥ 3 per plate). Cell viability assay was performed with CellTiter-Glo Luminescent Cell Viability Assay (Promega, cat#: G7573) with modification. Mixed appropriate amount of CellTiter-Glo (CTG) 1×DPBS in a 1:1 ratio, added 100 uL of the mixture to each well followed completely removal of all supernatant in each well without touching cell surface. Incubated the plate at room temperature for 10 min on an orbital shaker, and then read the plate with a plate reader (TECAN M1000 or Envision). EC50 or CC50 values were calculated through curve-fitting of the four-parameter nonlinear-logistic-regression model (GraphPad Prism or Dotmatics). CC50 values were all >10 μM.

SMILES | EC50
CN1[C@@H](C(=O)Nc2ccc(F)c(Cl)c2)C[C@@H](c2cccc(-c3ccccc3)c2)NS1(=O)=O (single isomer, unassigned) [2-Isomer II] | 5000 to 10000 nM
CN1[C@H](C(=O)Nc2ccc(F)c(Cl)c2)C[C@H](c2cccc(-c3ccccc3)c2)NS1(=O)=O (single isomer, unassigned) [2-Isomer I] | < 1000 nM
Cc1cc(-c2cccc([C@@H]3C[C@H](C(=O)Nc4ccc(F)c(Cl)c4)N(C)S(=O)(=O)N3)c2)ccn1 (single isomer, unassigned) [3-Isomer II] | 5000 to 10000 nM
Cc1cc(-c2cccc([C@H]3C[C@@H](C(=O)Nc4ccc(F)c(Cl)c4)N(C)S(=O)(=O)N3)c2)ccn1 (single isomer, unassigned) [3-Isomer I] | < 1000 nM
CN1[C@@H](C(=O)Nc2ccc(F)c(Cl)c2)C[C@@H](c2cccc(-c3ccc(C#N)cc3)c2)NS1(=O)=O (single isomer, unassigned) [4-Isomer II] | 1000 to 5000 nM
CN1[C@H](C(=O)Nc2ccc(F)c(Cl)c2)C[C@H](c2cccc(-c3ccc(C#N)cc3)c2)NS1(=O)=O (single isomer, unassigned) [4-Isomer I] | < 1000 nM
CN1[C@@H](C(=O)Nc2ccc(F)c(Cl)c2)C[C@@H](c2cccc(-c3ccc(F)cc3Cl)c2)NS1(=O)=O (single isomer, unassigned) [5-Isomer II] | 1000 to 5000 nM
CN1[C@H](C(=O)Nc2ccc(F)c(Cl)c2)C[C@H](c2cccc(-c3ccc(F)cc3Cl)c2)NS1(=O)=O (single isomer, unassigned) [5-Isomer I] | < 1000 nM
Cc1ccc(-c2cccc([C@@H]3C[C@H](C(=O)Nc4ccc(F)c(Cl)c4)N(C)S(=O)(=O)N3)c2)c(Cl)c1 (single isomer, unassigned) [6-Isomer II] | 1000 to 5000 nM
CC(C)c1ccc(-c2cccc([C@@H]3C[C@H](C(=O)Nc4ccc(F)c(Cl)c4)N(C)S(=O)(=O)N3)c2)cc1 (single isomer, unassigned) [7-Isomer II] | 1000 to 5000 nM
CC(C)c1ccc(-c2cccc([C@H]3C[C@@H](C(=O)Nc4ccc(F)c(Cl)c4)N(C)S(=O)(=O)N3)c2)cc1 (single isomer, unassigned) [7-Isomer I] | < 1000 nM
CN1[C@@H](C(=O)Nc2ccc(F)c(Cl)c2)C[C@@H](c2cccc(-c3cccc(C(F)(F)F)c3)c2)NS1(=O)=O (single isomer, unassigned) [8-Isomer II] | 5000 to 10000 nM
CN1[C@H](C(=O)Nc2ccc(F)c(Cl)c2)C[C@H](c2cccc(-c3cccc(C(F)(F)F)c3)c2)NS1(=O)=O (single isomer, unassigned) [8-Isomer I] | < 1000 nM
CN1[C@@H](C(=O)Nc2ccc(F)c(Cl)c2)C[C@@H](c2cccc(-c3ccc(Cl)c(Cl)c3)c2)NS1(=O)=O (single isomer, unassigned) [9-Isomer II] | 5000 to 10000 nM
CN1[C@H](C(=O)Nc2ccc(F)c(Cl)c2)C[C@H](c2cccc(-c3ccc(Cl)c(Cl)c3)c2)NS1(=O)=O (single isomer, unassigned) [9-Isomer I] | < 1000 nM
Cc1cc(-c2cccc([C@@H]3C[C@H](C(=O)Nc4ccc(F)c(Cl)c4)N(C)S(=O)(=O)N3)c2)ccc1F (single isomer, unassigned) [10 Isomer II] | 5000 to 10000 nM
Cc1cc(-c2cccc([C@H]3C[C@@H](C(=O)Nc4ccc(F)c(Cl)c4)N(C)S(=O)(=O)N3)c2)ccc1F (single isomer, unassigned) [10-Isomer I] | < 1000 nM

SMILES | EC50
CN1[C@@H](C(=O)Nc2ccc(F)c(Cl)c2)C[C@@H](c2cccc(-c3cccc(C(=O)O)c3)c2)NS1(=O)=O (single isomer, unassigned) [19-Isomer II] | 5000 to 10000 nM
CN1[C@H](C(=O)Nc2ccc(F)c(Cl)c2)C[C@H](c2cccc(-c3cccc(C(=O)O)c3)c2)NS1(=O)=O (single isomer, unassigned) [19-Isomer I] | < 1000 nM
CN1[C@@H](C(=O)Nc2ccc(F)c(Cl)c2)C[C@@H](c2cccc(N3CCOCC3)c2)NS1(=O)=O (single isomer, unassigned) [24-Isomer II] | 5000 to 10000 nM
CN1[C@H](C(=O)Nc2ccc(F)c(Cl)c2)C[C@H](c2cccc(N3CCOCC3)c2)NS1(=O)=O (single isomer, unassigned) [24-Isomer I] | < 1000 nM
CN1CCN(c2cccc([C@@H]3C[C@H](C(=O)Nc4ccc(F)c(Cl)c4)N(C)S(=O)(=O)N3)c2)CC1 (single isomer, unassigned) [25-Isomer II] | 1000 to 5000 nM
CN1CCN(c2cccc([C@H]3C[C@@H](C(=O)Nc4ccc(F)c(Cl)c4)N(C)S(=O)(=O)N3)c2)CC1 (single isomer, unassigned) [25-Isomer I] | < 1000 nM
CN1[C@@H](C(=O)Nc2ccc(F)c(Cl)c2)C[C@@H](c2cccc(-n3ccnc3)c2)NS1(=O)=O (single isomer, unassigned) [27-Isomer II] | 5000 to 10000 nM
CN1[C@H](C(=O)Nc2ccc(F)c(Cl)c2)C[C@H](c2cccc(-n3ccnc3)c2)NS1(=O)=O (single isomer, unassigned) [27-Isomer I] | < 1000 nM
CN1C(C(=O)Nc2ccc(F)c(Cl)c2)CC(c2cccc(-c3ccccc3)c2)NS1(=O)=O (stereo not drawn) [Example 2, 5-([1,1-Biphenyl]-3-yl)-N-(3-chloro-4-fluorophenyl)-2-methyl-1,2,6-thiadiazinane-3-carboxamide 1,1-dioxide] | < 1000 nM
Cc1cc(-c2cccc(C3CC(C(=O)Nc4ccc(F)c(Cl)c4)N(C)S(=O)(=O)N3)c2)ccn1 (stereo not drawn) [Example 3, N-(3-Chloro-4-fluorophenyl)-2-methyl-5-(3-(2-methylpyridin-4-yl)phenyl)-1,2,6-thiadiazinane-3-carboxamide 1,1-dioxide] | < 1000 nM
CN1C(C(=O)Nc2ccc(F)c(Cl)c2)CC(c2cccc(-c3ccc(C#N)cc3)c2)NS1(=O)=O (stereo not drawn) [Example 4, N-(3-Chloro-4-fluorophenyl)-5-(4′-cyano-[1,1′-biphenyl]-3-yl)-2-methyl-1,2,6-thiadiazinane-3-carboxamide 1,1-dioxide] | < 1000 nM
CN1C(C(=O)Nc2ccc(F)c(Cl)c2)CC(c2cccc(-c3ccc(F)cc3Cl)c2)NS1(=O)=O (stereo not drawn) [Example 5, 5-(2′-Chloro-4′-fluoro-[1,1′-biphenyl]-3-yl)-N-(3-Chloro-4-fluorophenyl)-2-methyl-1,2,6-thiadiazinane-3-carboxamide 1,1-dioxide] | < 1000 nM
Cc1ccc(-c2cccc(C3CC(C(=O)Nc4ccc(F)c(Cl)c4)N(C)S(=O)(=O)N3)c2)c(Cl)c1 (stereo not drawn) [Example 6, 5-(2′-Chloro-4′-methyl-[1,1′-biphenyl]-3-yl)-N-(3-Chloro-4-fluorophenyl)-2-methyl-1,2,6-thiadiazinane-3-carboxamide 1,1-dioxide] | < 1000 nM
CC(C)c1ccc(-c2cccc(C3CC(C(=O)Nc4ccc(F)c(Cl)c4)N(C)S(=O)(=O)N3)c2)cc1 (stereo not drawn) [Example 7, N-(3-Chloro-4-fluorophenyl)-5-(4′-isopropyl-[1,1′-biphenyl]-3-yl)-2-methyl-1,2,6-thiadiazinane-3-carboxamide 1,1-dioxide] | < 1000 nM
CN1C(C(=O)Nc2ccc(F)c(Cl)c2)CC(c2cccc(-c3cccc(C(F)(F)F)c3)c2)NS1(=O)=O (stereo not drawn) [Example 8, N-(3-Chloro-4-fluorophenyl)-2-methyl-5-(3′-(trifluoromethyl)-[1,1′-biphenyl]-3-yl)-1,2,6-thiadiazinane-3-carboxamide 1,1-dioxide] | < 1000 nM
CN1C(C(=O)Nc2ccc(F)c(Cl)c2)CC(c2cccc(-c3ccc(Cl)c(Cl)c3)c2)NS1(=O)=O (stereo not drawn) [Example 9, N-(3-Chloro-4-fluorophenyl)-5-(3′,4′-dichloro-[1,1′-biphenyl]-3-yl)-2-methyl-1,2,6-thiadiazinane-3-carboxamide 1,1-dioxide] | 1000 to 5000 nM
